Measured values: patent US11365195B2, “Atypical inhibitors of monoamine transporters; method of making; and use thereof” (THE UNITED STATES OF AMERICA, AS REPRESENTED BY THE …, priority 2017, dated 2022)
Like-named read-outs stand apart in the source and are kept apart here.

How the values were obtained:
SERT = target: T1, SERT (Rattus norvegicus, UniProt P31652); test: SERT radioligand binding in rat midbrain ([3H]-Citalopram competition)
T1 construct: 100 μl of tissue preparation (2 mg of brain stem membranes per well); tissue Bioreclamation IVT (Hicksville, N.Y.); host or cells: male Sprague-Dawley rat brain stem membranes
Procedure: (§1) Binding affinities of the analogue compounds were evaluated at the DAT and SERT in rat brain membranes, and sigma-1 in guinea pig brain membranes according to the following protocols.
SERT Radioligand Binding in Rat Midbrain
(§2) The tissue was centrifuged at 20,000 rpm for 10 min at 4° C. The pellet was suspended in cold buffer and centrifuged again using the same settings. The resulting pellet was resuspended in cold buffer at a concentration of 20 mg/mL OWW (original wet weight). On test day, all test compounds were freshly dissolved in 30% DMSO and 70% H2O to a stock concentration of 1 mM or 100 μM. When necessary, to assist the solubilization of compounds, 10 μl of glacial acetic acid was added along with the DMSO (in place of 10 μl final H2O volume). Each test compound was then diluted into 10 half-log serial dilutions using 30% DMSO vehicle. […] Non-specific binding was determined using 10 μL Fluoxetine HCl and total binding was determined with 30% DMSO vehicle. The reaction was started with the addition of the tissue. All compound dilutions were tested in triplicate and the reaction incubated for 60 min at room temperature. The reaction was terminated by filtration through Perkin Elmer Uni-Filter-96 GF/B, presoaked for 60 min in 0.3% polyethylenimine, using a Brandel 96-Well Plates Harvester Manifold (Brandel Instruments, Gaithersburg, Md.). The filters were washed 3 times with 3 mL (3×1 mL/well) of ice cold binding buffer. […] These analyses were performed using GraphPad Prism version 6.00 for Macintosh (GraphPad Software, San Diego, Calif.).

σ1R = target: T2, σ1R (Cavia porcellus, UniProt Q60492); test: σ1R radioligand binding in guinea pig cortex ([3H]-(+)-Pentazocine competition); conditions: for σ1/DAT: ratio of σ1 to DAT affinity values; for σ1/SERT: ratio of σ1 to SERT affinity values
T2 construct: tissue BioReclamation IVT (Hicksville, N.Y.); host or cells: male Hartley guinea pig brain cortex membranes
Procedure: as §1
σ1R Radioligand Binding in Guinea Pig Cortex
Male Hartley guinea pig cortices were dissected from freshly harvested brains (shipped cold in PBS buffer from BioReclamation IVT (Hicksville, N.Y.)) and frozen at −80° C. for future use. […] The supernatant was collected in a clean tube and the pellet re-suspended in 10 ml of cold buffer and centrifuged again (˜1,200 rpm) for 10 min at 4° C. […] The final pellet was suspended in ice-cold binding buffer at 50 mg/ml concentration. […] All test compounds were freshly dissolved in 30% DMSO and 70% H2O to a stock concentration of 1 mM or 100 μM. When necessary, to assist the solubilization of compounds, 10 μl of glacial acetic acid was added along with the DMSO (in place of 10 μl final H2O volume). Each test compound was then diluted into 10 half-log serial dilutions using 30% DMSO as the vehicle. […] Nonspecific binding was determined using either 10 μM PRE084 or 10 μM (+)-Pentazocine and total binding was determined with 30% DMSO vehicle (3% DMSO final concentration). […] The filters were washed 3 times with 3 ml (3×1 ml/well) of ice cold binding buffer.

DAT = target: T3, DAT (Rattus norvegicus, UniProt P23977); test: DAT radioligand binding in rat striatum ([3H]-WIN35,428 competition); conditions: for SERT/DAT: ratio of SERT Ki to DAT Ki
T3 construct: 100 μl of tissue preparation (1.5 mg of brain striatum membranes per well); tissue Bioreclamation IVT (Hicksville, N.Y.); host or cells: male Sprague-Dawley rat brain striatum membranes
Procedure: as §1
DAT Radioligand Binding in Rat Striatum
as §2, with “of 15” for “of 20”, “100 μM” for “100 μM.”, “[…] Indatraline” for “μL Fluoxetine HCl”, “tissue. […]” for “tissue. All compound dilutions were tested in triplicate and the reaction incubated for 60 min at room temperature. The reaction was terminated by filtration through Perkin Elmer Uni-Filter-96 GF/B, presoaked for 60 min in 0.3% polyethylenimine, using a Brandel 96-Well Plates Harvester Manifold (Brandel Instruments, Gaithersburg, Md.).”

[1] = Phase I metabolic stability in rat liver microsomes; type: in vitro ADME; conditions: for Phase I in Liver Microsomes, Negative Control: rat liver microsomes lacking NADPH; for Phase I in Liver Microsomes, Rat: with NADPH, 10 μM compound, 0.5 mg/mL microsomes
Procedure: Methods: Phase I metabolic stability assays were conducted in rat liver microsomes. For phase I metabolism, the reactions were carried out with 100 mM potassium phosphate buffer, pH 7.4, in the presence of NADPH regenerating system (1.3 mM NADPH, 3.3 mM glucose 6-phosphate, 3.3 mM MgCl2, 0.4 U/mL glucose-6-phosphate dehydrogenase, […] sodium citrate). Reactions in triplicate were initiated by addition of the liver microsomes to the incubation mixture (compound final concentration was 10 μM; 0.5 mg/mL microsomes). Compound disappearance was monitored via LC/MS/MS. […] The total run time for each analyte was 5.0 min.

[2] = rat midbrain/brain stem membranes, [3H]-Citalopram, mean ± SEM, read-out: SERT (rat mid-brain-stem) Ki ± SEM
[3] = rat striatum membranes, [3H]-WIN35,428, mean ± SEM, read-out: DAT (rat striatum) Ki ± SEM

T3 sequence (P23977 whole entry): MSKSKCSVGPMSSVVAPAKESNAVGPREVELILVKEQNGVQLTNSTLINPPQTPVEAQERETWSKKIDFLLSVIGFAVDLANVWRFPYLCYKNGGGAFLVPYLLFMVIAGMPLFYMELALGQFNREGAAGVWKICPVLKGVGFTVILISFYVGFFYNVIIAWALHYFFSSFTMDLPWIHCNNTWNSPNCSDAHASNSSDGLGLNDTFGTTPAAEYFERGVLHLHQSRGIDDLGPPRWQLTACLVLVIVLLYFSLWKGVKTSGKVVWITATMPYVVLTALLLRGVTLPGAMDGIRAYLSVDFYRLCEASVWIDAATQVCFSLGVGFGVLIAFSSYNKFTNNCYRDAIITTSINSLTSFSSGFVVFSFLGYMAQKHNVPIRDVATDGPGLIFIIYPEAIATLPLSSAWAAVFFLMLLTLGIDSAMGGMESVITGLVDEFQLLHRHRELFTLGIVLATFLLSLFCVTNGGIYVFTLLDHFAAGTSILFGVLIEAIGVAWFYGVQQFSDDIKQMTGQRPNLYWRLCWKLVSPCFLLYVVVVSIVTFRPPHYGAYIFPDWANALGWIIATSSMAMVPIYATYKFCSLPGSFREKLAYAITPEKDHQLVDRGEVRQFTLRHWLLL
T2 sequence (Q60492 whole entry): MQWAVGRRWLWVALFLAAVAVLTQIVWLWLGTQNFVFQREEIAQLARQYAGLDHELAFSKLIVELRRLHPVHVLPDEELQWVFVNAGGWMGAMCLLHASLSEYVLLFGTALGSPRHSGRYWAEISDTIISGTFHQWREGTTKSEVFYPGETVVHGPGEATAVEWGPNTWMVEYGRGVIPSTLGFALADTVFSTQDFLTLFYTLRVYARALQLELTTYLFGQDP
T1 sequence (P31652 whole entry): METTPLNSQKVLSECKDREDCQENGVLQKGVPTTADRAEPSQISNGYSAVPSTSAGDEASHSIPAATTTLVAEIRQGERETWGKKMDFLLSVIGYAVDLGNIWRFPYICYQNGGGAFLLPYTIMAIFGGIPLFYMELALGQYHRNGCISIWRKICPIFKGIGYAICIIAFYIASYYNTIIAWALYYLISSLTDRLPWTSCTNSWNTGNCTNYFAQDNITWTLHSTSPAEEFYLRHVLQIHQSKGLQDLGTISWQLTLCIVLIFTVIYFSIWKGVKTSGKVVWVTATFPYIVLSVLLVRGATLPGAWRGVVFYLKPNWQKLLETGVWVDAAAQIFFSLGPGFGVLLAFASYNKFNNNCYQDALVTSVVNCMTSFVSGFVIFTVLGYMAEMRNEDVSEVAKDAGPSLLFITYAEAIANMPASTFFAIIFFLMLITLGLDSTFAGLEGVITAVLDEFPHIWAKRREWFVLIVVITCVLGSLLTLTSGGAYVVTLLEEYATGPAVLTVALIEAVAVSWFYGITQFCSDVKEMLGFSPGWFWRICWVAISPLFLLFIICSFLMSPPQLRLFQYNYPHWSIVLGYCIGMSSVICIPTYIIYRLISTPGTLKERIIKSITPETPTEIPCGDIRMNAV

## Fc1ccc(C(SCCNC2CCN(Cc3ccccc3)CC2)c2ccc(F)cc2)cc1 [JBG01-052, 1-Benzyl-N-(2-((bis(4-fluorophenyl)methyl)thio)ethyl)piperidin-4-amine]
SERT; [2]
  Ki: 0.407 ± 0.0579 µM
σ1R
  Kd: 0.00397 ± 0.000767 µM
  σ1/DAT: 0.12
  σ1/SERT: 0.0098
DAT; [3]
  Ki: 0.0329 ± 0.00586 µM
DAT
  SERT/DAT: 12.37

## Cl.Cl.OC(Cc1ccccc1)CN(CC(O)Cc1ccccc1)C1CCN(CCSC(c2ccc(F)cc2)c2ccc(F)cc2)CC1 (centres unmarked) [JBG01-056, 3,3′-((1-(2-((Bis(4-fluorophenyl)methyl)thio)ethyl)piperidin-4-yl)azanediyl)bis(1-phenylpropan-2-ol)]
SERT
  Ki: 1.57 ± 0.315 µM
σ1R
  Kd: 0.326 ± 0.0224 µM
  σ1/DAT: 1.75
  σ1/SERT: 0.21
DAT
  Ki: 0.186 ± 0.0464 µM
  SERT/DAT: 8.44

## Fc1ccc(C(SCCN2CCC(NCc3ccccc3)CC2)c2ccc(F)cc2)cc1 [JBG01-057, N-Benzyl-1-(2-((bis(4-fluorophenyl)methyl)thio)ethyl)piperidin-4-amine]
SERT; [2]
  Ki: 0.329 ± 0.0343 µM
σ1R
  σ1/DAT: 0.56
  σ1/SERT: 0.19
DAT; [3]
  Ki: 0.108 ± 0.0175 µM
DAT
  SERT/DAT: 3.05

## Cl.Cl.OC(Cc1ccccc1)CN1CCC(NCCSC(c2ccc(F)cc2)c2ccc(F)cc2)CC1 (centres unmarked) [JBG01-058, 1-(4-((2-((Bis(4-fluorophenyl)methyl)thio)ethyl)amino)piperidin-1-yl)-3-phenylpropan-2-ol]
SERT; [2]
  Ki: 0.128 ± 0.0332 µM
[1]; 0 min
  Phase I in Liver Microsomes, Negative Control: 100%
  Phase I in Liver Microsomes, Rat: 100%
[1]; 30 min
  Phase I in Liver Microsomes, Rat: 98%
[1]; 60 min
  Phase I in Liver Microsomes, Negative Control: 96%
  Phase I in Liver Microsomes, Rat: 74%

## Cl.Cl.Fc1ccc(CNC2CCN(CCSC(c3ccc(F)cc3)c3ccc(F)cc3)CC2)cc1 [JBG01-064, 1-(2-((Bis(4-fluorophenyl)methyl)thio)ethyl)-N-(4-fluorobenzyl)piperidin-4-amine]
SERT; [2]
  Ki: 0.267 ± 0.00925 µM
σ1R
  σ1/DAT: 0.74
  σ1/SERT: 0.16
DAT; [3]
  Ki: 0.0559 ± 0.00608 µM
DAT
  SERT/DAT: 4.78

## Cl.Cl.Fc1ccc(C(SCCNC2CCN(Cc3ccc(Cl)cc3)CC2)c2ccc(F)cc2)cc1 [JBG01-078, N-(2-((Bis(4-fluorophenyl)methyl)thio)ethyl)-1-(4 chlorobenzyl)piperidin-4-amine]
SERT; [2]
  Ki: 0.356 ± 0.000862 µM
σ1R
  σ1/DAT: 1.15
  σ1/SERT: 0.13
DAT; [3]
  Ki: 0.0396 ± 0.00927 µM
DAT
  SERT/DAT: 8.99

## Cl.Cl.Fc1ccc(C(SCCNC2CCN(Cc3ccc(C(F)(F)F)cc3)CC2)c2ccc(F)cc2)cc1 [JBG01-083, N-(2-((Bis(4-fluorophenyl)methyl)thio)ethyl)-1-(4-(trifluoromethyl)benzyl)piperidin-4-amine]
SERT; [2]
  Ki: 1.62 ± 0.175 µM
DAT; [3]
  Ki: 0.19 ± 0.0479 µM
DAT
  SERT/DAT: 8.53

## Cl.Cl.Fc1ccc(C(SCCNC2CCN(CCc3ccccc3)CC2)c2ccc(F)cc2)cc1 [JBG01-084, N-(2-((Bis(4-fluorophenyl)methyl)thio)ethyl)-1-phenethylpiperidin-4-amine]
SERT; [2]
  Ki: 0.144 ± 0.017 µM
σ1R
  σ1/DAT: 1.83
  σ1/SERT: 0.40
DAT; [3]
  Ki: 0.0315 ± 0.00532 µM
DAT
  SERT/DAT: 4.57

## Cl.Cl.Fc1ccc(C(SCCN2CCC(NCc3ccc(Cl)cc3)CC2)c2ccc(F)cc2)cc1 [JBG01-086, 1-(2-((Bis(4-fluorophenyl)methyl)thio)ethyl)-N-(4-chlorobenzyl)piperidin-4-amine]
SERT; [2]
  Ki: 0.395 ± 0.0566 µM
σ1R
  σ1/DAT: 0.72
  σ1/SERT: 0.16
DAT; [3]
  Ki: 0.0865 ± 0.0356 µM
DAT
  SERT/DAT: 4.57

## Cl.Cl.Fc1ccc(C(SCCN2CCC(NCc3ccc(C(F)(F)F)cc3)CC2)c2ccc(F)cc2)cc1 [JBG01-087, 1-(2-((Bis(4-fluorophenyl)methyl)thio)ethyl)-N-(4-(trifluoromethyl)benzyl)piperidin-4-amine]
SERT; [2]
  Ki: 1.04 ± 0.19 µM
DAT; [3]
  Ki: 0.128 ± 0.0319 µM
DAT
  SERT/DAT: 8.13

## Cl.O=C(c1ccccc1)N1CCC(NCCSC(c2ccc(F)cc2)c2ccc(F)cc2)CC1 [JBG02-009, (4-((2-((Bis(4-fluorophenyl)methyl)thio)ethyl)amino)piperidin-1-yl)(phenyl)methanone]
[1]; 0 min
  Phase I in Liver Microsomes, Negative Control: 100%
  Phase I in Liver Microsomes, Rat: 100%
[1]; 30 min
  Phase I in Liver Microsomes, Rat: 20%
[1]; 60 min
  Phase I in Liver Microsomes, Negative Control: 100%
  Phase I in Liver Microsomes, Rat: 7%
[1]; rat liver microsomes fortified with NADPH
  stability to Phase I metabolism (in words): susceptibility
σ1R
  Kd: 0.00204 ± 0.000298 µM

## Cl.Cl.Fc1ccc(C(SCCNC2CCN(Cc3cc4ccccc4[nH]3)CC2)c2ccc(F)cc2)cc1 [JBG02-014, 1-((1H-Indol-2-yl)methyl)-N-(2-((bis(4-fluorophenyl)methyl)thio)ethyl)piperidin-4-amine]
SERT; [2]
  Ki: 1.72 ± 0.516 µM
DAT; [3]
  Ki: 0.179 ± 0.022 µM
DAT
  SERT/DAT: 9.61

## O=C(c1cc2ccccc2o1)N1CCC(NCCSC(c2ccc(F)cc2)c2ccc(F)cc2)CC1 [JBG02-015, Benzofuran-2-yl(4-((2-((bis(4-fluorophenyl)methyl)thio)ethyl)amino)piperidin-1-yl)methanone]
SERT; [2]
  Ki: 0.0964 ± 0.0237 µM
DAT; [3]
  Ki: 0.115 ± 0.0195 µM

## Cl.Cl.O.O=C(c1cc2ccccc2[nH]1)N1CCC(NCCSC(c2ccc(F)cc2)c2ccc(F)cc2)CC1 [JBG02-029, (4-((2-((Bis(4-fluorophenyl)methyl)thio)ethyl)amino)piperidin-1-yl)(1H-indol-2-yl)methanone]
SERT; [2]
  Ki: 0.938 ± 0.0765 µM
DAT
  Ki: 0.18 ± 0.0398 µM
  SERT/DAT: 5.21

## Cl.O=C(c1ccccc1)N1CCC(NCC[S+]([O-])C(c2ccc(F)cc2)c2ccc(F)cc2)CC1 (centres unmarked) [JBG02-055, (4-((2-((Bis(4-fluorophenyl)methyl)sulfinyl)ethyl)amino)piperidin-1-yl)(phenyl)methanone]
SERT; [2]
  Ki: 7.73 ± 0.732 µM
DAT; [3]
  Ki: 0.0791 ± 0.0206 µM
DAT
  SERT/DAT: 97.72

## CC(C)(C)C(=O)N1CCC(NCCSC(c2ccc(F)cc2)c2ccc(F)cc2)CC1.Cl [JBG02-064, 1-(4-((2-((Bis(4-fluorophenyl)methyl)thio)ethyl)amino)piperidin-1-yl)-2,2-dimethylpropan-1-one]
SERT; [2]
  Ki: 1 ± 0.228 µM
DAT; [3]
  Ki: 0.352 ± 0.137 µM
DAT
  SERT/DAT: 2.84

## CC(C)(C)CN1CCC(NCCSC(c2ccc(F)cc2)c2ccc(F)cc2)CC1 [JBG02-066, N-(2-((Bis(4-fluorophenyl)methyl)thio)ethyl)-1-neopentylpiperidin-4-amine]
SERT; [2]
  Ki: 0.947 ± 0.101 µM
σ1R
  σ1/DAT: 1.13
DAT; [3]
  Ki: 0.279 ± 0.0394 µM
DAT
  SERT/DAT: 3.39
